According to patent US20140296178A1, “Combination Therapy with a Gallium Complex” (priority 2010, published 2014):

System: multiple myeloma tumor cell line RPMI 8226
Assay: Promega Cell Titer-Glo antiproliferative assay, single agent and combination
Format: cell-based, human
Details: unit from figure X axis
Procedure: The antiproliferative activity of tris(8-quinolinolato)gallium(III) and lenalidomide against the human multiple myeloma tumor cell line RPMI 8226 was determined with Promega's Cell Titer-Glo® assay. The human tumor cells were placed in a 96-well microculture plate at the appropriate density for 96 hours of total growth time. After 24 hours of incubation in a humidified incubator at 37° C. with 5% CO2 and 95% air, serially diluted test agents in growth medium were added to each well. After 96 total hours of culture in a CO2 incubator, the plates were processed with Cell Titer-Glo (Promega #G7571) according to manufacturer's instructions. Luminescence was detected using a Tecan GENios microplate reader. Percent inhibition of cell growth was calculated relative to untreated control wells. All tests were performed in duplicate at each concentration level. The IC50 value for the test agents was estimated using Prism 3.03 by curve-fitting the data using the following four parameter-logistic equation: […]
The same Promega Cell Titer-Glo® assay described above was used in the combination study. […] After 96 hours, the cell number was determined with the Cell Titer Glo® assay as described above. […]

## [Ga+3].[O-]c1cccc2cccnc12.[O-]c1cccc2cccnc12.[O-]c1cccc2cccnc12 [tris(8-quinolinolato)gallium(III)]
RPMI-8226, tris(8-quinolinolato)gallium(III) alone
  IC50: ~900 nM
RPMI-8226, with lenalidomide at a constant amount
  IC50: 500 nM
